Assay results taken from patent publication US12098147B2, “Compound having novel structure, complex comprising same, anti-cancer pharmaceutical composition, and anti-cancer drug” (ETNOVA THERAPEUTICS CORP., priority 2018, dated 2024).
Like-named read-outs stand apart in the source and are kept apart here.

Columns and labels:
MCF10a = assay: CCK-8 cell viability, MCF10a normal breast epithelial cell line; format: cell-based; conditions: for IC50: serum-free medium, 24 hours, CCK-8, mean ± SD of 2 to 3 experiments; for cytotoxicity against breast epithelial cells, in words: breast epithelial cells (MCF10a), FIG. 4
Experimental: (§1) To identify the anticancer effect of the compounds L1, L2, and L3 according to Examples 1 to 3 of the present disclosure, and the complexes L1Pt, L2Pt, and L3Pt according to Examples 4 to 6 of the disclosure, the cell viability analysis of cancer cells using CCK-8 was performed on several cancer cell lines (colorectal cancer cell line (HT-29 cell line), breast cancer cell line (MCF-7 and MDA-MB-231), cervical cancer cell line (HeLa cell line), liver cancer cell line (Huh-7 and HepG2), brain glioma cell line (C6), lung cancer (A549), prostate cancer (PC3), kidney cancer (Caki-2), normal liver cell line (AML-12), embryonic kidney cell line (HEK-293), neural stem cell line (NE-4C) and normal breast epithelial cell line (MCF10a)).
(§2) CCK-8 (Cell counting kit-8) is analyzed using a highly water-soluble tetrazolium salt-[…]. [2-(2-methoxy-4-nitrophenyl)-3-(4-nitrophenyl)(2,4-disulfophenyl)-2H-tetrazolium, monosodium salt] is reduced under the presence of an electron medium to produces a water-soluble formazan orange dye. The amount of the formazan dye produced by dehydrogenase in a cell is directly proportional to the number of living cells.
(§3) In an experimental method for evaluating the properties of the compounds according to the present disclosure, various cancer cell lines derived from humans and normal cell lines of each tissue derived from humans and mice were used in this experiment. A complete growth medium corresponding to each cell line and having 10% of heat-inactivated FBS added thereto was used to maintain corresponding cells. The maintained cells were suspended in a volume of 200 μl at a density of 1 or 1.5×10^4 cells and planted in each well of a 96 well plate. The cells were attached to a 37° C. and 5% CO2 incubator for more than 14 hours, and we waited for a stable state. The next day, we removed the medium from the well. 100 μl of serum-free medium containing drugs of various concentrations (0 (control), 2.5, 5, 10, 20, 30, 40, 50, 100, 200 μM) was added to each well and the cells was cultured therein. On 22 hours after the incubation, 10 μl of CCK-8 solution was added to each well, followed by incubation for 2 hours. A plate on which the culture was completed was measured in terms of absorbance at 450 nm using a microplate reader.
(§4) Cell Viability Calculation:
(§5) • A: Absorbance value measured in a control well • B: Absorbance value measured in a well containing the drug
(§6) In Table 1 below, each compound was applied to the cells at 0, 2.5, 5, 10, 20, 30, 40, 50, 100, and 200 μM, and the cells was cultured in a medium free of serum for 24 hours. The measured absorbance value was converted to a % value based on a value of 0, such that a IC50 value was calculated. Each experiment was performed 2 to 3 times and a standard deviation value was obtained.

HepG2 = assay: CCK-8 cell viability, HepG2 liver cancer cell line; format: cell-based, human; conditions: 24 hours, mean ± SD of 2 to 3 experiments
Experimental: as §1, §2, §3, §4, §5, §6

PC3 = assay: CCK-8 cell viability, PC3 prostate cancer cell line; format: cell-based, human; conditions: 24 hours, mean ± SD of 2 to 3 experiments
Experimental: as §1, §2, §3, §4, §5, §6

Caki-2 = assay: CCK-8 cell viability, Caki-2 kidney cancer cell line; format: cell-based, human; conditions: serum-free medium, 24 hours, mean ± SD of 2 to 3 experiments
Experimental: as §1, §2, §3, §4, §5, §6

HeLa cell line = assay: CCK-8 cell viability, HeLa cervical cancer cell line; format: cell-based, human; conditions: serum-free medium, 24 hours, mean ± SD of 2 to 3 experiments
Experimental: as §1, §2, §3, §4, §5, §6

MCF-7 = assay: CCK-8 cell viability, MCF-7 breast cancer cell line; format: cell-based, human; conditions: 24 hours, mean ± SD of 2 to 3 experiments
Experimental: as §1, §2, §3, §4, §5, §6

NE-4C = assay: CCK-8 cell viability, NE-4C neural stem cell line; format: cell-based; conditions: for IC50: serum-free medium, 24 hours, CCK-8, mean ± SD of 2 to 3 experiments, read-out: IC50 NC-4C (Neural stem cell); for toxicity against brain neurons, in words: brain neurons (NE-4C), FIG. 4
Experimental: as §2, §3, §4, §5, §6

HT-29 cell line = assay: CCK-8 cell viability, HT-29 colorectal cancer cell line; format: cell-based, human; conditions: serum-free medium, 24 hours, mean ± SD of 2 to 3 experiments
Experimental: as §1, §2, §3, §4, §5, §6

MDA-MB-231 = assay: CCK-8 cell viability, MDA-MB-231 breast cancer cell line; format: cell-based, human; conditions: 24 hours, mean ± SD of 2 to 3 experiments
Experimental: as §1, §2, §3, §4, §5, §6

HEK-293 = assay: CCK-8 cell viability, HEK-293 embryonic kidney cell line; format: cell-based; conditions: serum-free medium, 24 hours, mean ± SD of 2 to 3 experiments, read-out: IC50 HEK293 (embryonic kidney)
Experimental: as §1, §2, §3, §4, §5, §6

Huh-7 = assay: CCK-8 cell viability, Huh-7 liver cancer cell line; format: cell-based, human; conditions: 24 hours, mean ± SD of 2 to 3 experiments
Experimental: as §1, §2, §3, §4, §5, §6

AML12 = assay: CCK-8 cell viability, AML-12 normal liver cell line; format: cell-based; conditions: for IC50: serum-free medium, 24 hours, CCK-8, mean ± SD of 2 to 3 experiments; for toxicity against normal hepatocytes, in words: normal hepatocytes (AML12), FIG. 4
Experimental: as §2, §3, §4, §5, §6

A549 = assay: CCK-8 cell viability, A549 lung cancer cell line; format: cell-based, human; conditions: serum-free medium, 24 hours, mean ± SD of 2 to 3 experiments
Experimental: as §1, §2, §3, §4, §5, §6

C6 = assay: CCK-8 cell viability, C6 brain glioma cell line; format: cell-based, human; conditions: 24 hours, mean ± SD of 2 to 3 experiments
Experimental: as §1, §2, §3, §4, §5, §6

[1] = tested on: several cancer cell lines; assay: CCK-8 cell viability, panel of cancer cell lines compared in words (FIGS. 3a to 3e); format: cell-based, human; conditions: for effect on cancer cell lines compared with the rest of the compounds, in words / toxic effect on cancer cell lines compared with cisplatin and BTA, in words / cell toxicity on cancer cell lines compared with BTA, in words / cell toxicity on cancer cell lines compared with cisplatin, in words: Log IC50 comparison, FIGS. 3a to 3e; for effect on cancer cell lines compared with the rest of the compounds, in words: comparator the rest of the compounds; for toxic effect on cancer cell lines compared with cisplatin and BTA, in words: comparators cisplatin and BTA; for cell toxicity on cancer cell lines compared with BTA, in words: comparator BTA; for cell toxicity on cancer cell lines compared with cisplatin, in words: comparator cisplatin
Experimental: as §1, §2, §3
Further, FIGS. 3a to 3e show a graph in which a IC50 value which is obtained based on 2 to 3 times executions of the cell viability analysis is converted to a Log IC50 value. […] The comparative reliability values for BTA were expressed as […], ##p<0.01, and ## #p<0.001. A red line represents the value of cisplatin. A blue line represents the value of BTA.

[2] = Homo sapiens, HepG2, serum-free medium
[3] = Homo sapiens, Huh-7, serum-free medium
[4] = Rattus norvegicus, C6, serum-free medium
[5] = Homo sapiens, MCF7, serum-free medium
[6] = Homo sapiens, MDA-MB-231, serum-free medium

Compound	IC50 (MCF10a) [µM]	IC50 (HepG2; serum-free medium) [µM]	IC50 (PC3; serum-free medium) [µM]	IC50 (Caki-2) [µM]	IC50 (HeLa cell line) [µM]	IC50 (MCF-7; serum-free medium) [µM]	IC50 (NE-4C) [µM]	IC50 (HT-29 cell line) [µM]	IC50 (MDA-MB-231; serum-free medium) [µM]	IC50 (HEK-293) [µM]	IC50 (Huh-7; serum-free medium) [µM]	IC50 (AML12) [µM]	IC50 (A549) [µM]	IC50 (C6; serum-free medium) [µM]	cytotoxicity against breast epithelial cells, in words (MCF10a)	IC50 (NE-4C; Neural stem cell) [µM]	toxicity against brain neurons, in words (NE-4C)	IC50 (Huh-7; [3]) [µM]	IC50 (C6; [4]) [µM]	toxicity against normal hepatocytes, in words (AML12)	other results
N.N.[Cl][Pt][Cl] [Cisplatin, cisplatin, reference compound]	96 ± 6.72	54.2 ± 31.8	> 500	> 500	26.2 ± 5.61	204 ± 27.3	9.01 ± 0.28	39.1 ± 0.61	181 ± 48.7	65.5 ± 4.06	38.6 ± 18.5	32.1 ± 4.45	> 500	227 ± 34.3	–	–	–	–	–	–	effect on cancer cell lines, in words ([1]; Log IC50, FIGS. 3a to 3e, no comparator): did not have a great effect on lung cancer, prostate cancer, and kidney cancer
NCC(N)C(=O)Nc1ccc(-c2nc3ccccc3s2)cc1 (centres unmarked) [Example L1, 2,3-diamoniumtrifluoroacetate-N-(4-benzothiazol-2-yl-phenyl)-propionamide]	–	–	–	–	–	–	–	–	–	–	–	–	–	–	weak cytotoxicity	36.8 ± 3.66	greater toxicity than BTA did	69.1 ± 5.25	77.8 ± 9.73	–	IC50 (HepG2; [2]): 5.94 ± 0.501 µM; IC50 (PC3; Homo sapiens, PC-3, serum-free medium): 94.99 ± 0.82 µM; effect on cancer cell lines compared with the rest of the compounds, in words [1]: superior effects on breast cancer, liver cancer, brain glioma, lung cancer, prostate cancer, and kidney cancer than the rest of the compounds did; toxic effect on cancer cell lines compared with cisplatin and BTA, in words [1]: greater toxic effect against cancer cell lines of colorectal cancer, breast cancer, liver cancer, brain glioma, lung cancer, prostate cancer, and kidney cancer than the cisplatin and BTA did
NCC(N)C(=O)Nc1ccc(-c2nc3ccccc3s2)cc1.[Cl][Pt][Cl] (centres unmarked) [Example L1Pt]	46.9 ± 5.14	7.49 ± 0.159	55.7 ± 7.47	106 ± 8.54	64.75 ± 0.31	59 ± 11.1	25.7 ± 1.66	42.6 ± 5.61	80.8 ± 10.5	54.9 ± 2.83	69.4 ± 1.24	139.1 ± 0.85	167 ± 11.2	93.3 ± 22.7	weak cytotoxicity	–	greater toxicity than BTA did	–	–	–	effect on cancer cell lines compared with the rest of the compounds, in words [1]: superior effects on breast cancer, liver cancer, brain glioma, lung cancer, prostate cancer, and kidney cancer than the rest of the compounds did; toxic effect on cancer cell lines compared with cisplatin and BTA, in words [1]: greater toxic effect against cancer cell lines of colorectal cancer, breast cancer, liver cancer, brain glioma, lung cancer, prostate cancer, and kidney cancer than the cisplatin and BTA did
O=C(Nc1ccc(-c2nc3ccccc3s2)cc1)C(C/N=C/c1ccccc1O)/N=C/c1ccccc1O (centres unmarked) [Example L2, N-(4-benzothiazol-2-yl-phenyl)-2,3-bis-[(2-hydroxy-benzylidene)-amino]-propionamide]	–	–	–	–	–	–	–	–	–	–	–	–	–	–	weak cytotoxicity	28.23 ± 0.06	greater toxicity than BTA did	95.9 ± 15	143 ± 32.7	did not exhibit liver cytotoxicity	IC50 (HepG2; [2]): 14.2 ± 7.06 µM; IC50 (HeLa cell line; Homo sapiens, HeLa): 47.1 ± 6.07 µM; IC50 (MCF-7; [5]): 98.2 ± 7.92 µM; IC50 (MDA-MB-231; [6]): 152 ± 19.9 µM; cell toxicity on cancer cell lines compared with BTA, in words [1]: greater cell toxicity against colorectal cancer, breast cancer, liver cancer, brain glioma, lung cancer, prostate cancer, and kidney cancer than BTA did; cell toxicity on cancer cell lines compared with cisplatin, in words [1]: greater toxic effect on cancer cell lines on lung cancer, prostate cancer, and kidney cancer than cisplatin did
O=C(Nc1ccc(-c2nc3ccccc3s2)cc1)C1CN=Cc2ccccc2[O][Pt][O]c2ccccc2C=N1 (centres unmarked) [Example L2Pt]	> 500	31.6 ± 3.62	> 500	> 500	221 ± 15.8	> 500	47 ± 4.12	173 ± 3.23	> 500	212 ± 14.9	197 ± 3.75	> 500	> 500	> 500	weaker cytotoxicity or no cytotoxicity than cisplatin and BTA did	–	greater toxicity than BTA did	–	–	did not exhibit liver cytotoxicity	cell toxicity on cancer cell lines compared with BTA, in words [1]: greater cell toxicity on colorectal cancer than BTA did
O=C(Nc1ccc(-c2nc3ccccc3s2)cc1)C1CNC(c2ccccn2)=N1 (centres unmarked) [Example L3, N-(4-(benzo[d]thiazol-2-yl)phenyl)-2-(pyridin-2-yl)-4,5-dihydro-1H-imidazole-4-carboxamide]	–	–	–	–	–	–	–	–	–	–	–	–	–	–	weaker cytotoxicity or no cytotoxicity than cisplatin and BTA did	22.4 ± 2.44	greater toxicity than BTA did	178 ± 2.6	142 ± 15.4	did not exhibit liver cytotoxicity	IC50 (HeLa cell line; Homo sapiens, HeLa): 99 ± 3.54 µM; IC50 (MCF-7; [5]): 190 ± 16.6 µM; IC50 (MDA-MB-231; [6]): > 500 µM; cell toxicity on cancer cell lines compared with BTA, in words [1]: greater cell toxicity on colorectal cancer breast cancer and brain glioma than BTA did; cell toxicity on cancer cell lines compared with cisplatin, in words [1]: greater cell toxicity on prostate cancer and kidney cancer than cisplatin did
